# Data from US20060074243A1, “Hydroxamic acid and amide compounds and their use as protease inhibitors” (Pharmacia Corporation, priority 2002, published 2006).
# pKi: −log10 of the molar value.
# Key:
# Test in all cases: In vitro MMP inhibition analysis (fluorogenic peptide substrate cleavage), Ki
# Format in all cases: biochemical
# Settings in all cases: Table 2
# Human recombinant MMP-14 = target: T1, Human recombinant MMP-14 (Homo sapiens, UniProt P50281)
# T1 construct: The catalytic domain enzyme was expressed in E. coli inclusion bodies, solubilized in urea; made in house
# Procedure, shortened: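 Refolded catalytic domain of MMP-14 expressed in E. coli, activated with APMA or trypsin, incubated 1 h at room temperature with 4 μM MCA-peptide substrate in Tris buffer pH 7.5 with CaCl2. Cleavage rate followed by fluorescence (ex 330/em 420 nm). Ki from Morrison-equation fit; substrate at or below Km, so no substrate correction.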
# Human recombinant MMP-2 = target: T2, Human recombinant MMP-2 (Homo sapiens, UniProt P08253)
# T2 construct: made in house; host or cells: MMP-2-transfected p2AHT2 cells
# T2 sequence (P08253 110-660): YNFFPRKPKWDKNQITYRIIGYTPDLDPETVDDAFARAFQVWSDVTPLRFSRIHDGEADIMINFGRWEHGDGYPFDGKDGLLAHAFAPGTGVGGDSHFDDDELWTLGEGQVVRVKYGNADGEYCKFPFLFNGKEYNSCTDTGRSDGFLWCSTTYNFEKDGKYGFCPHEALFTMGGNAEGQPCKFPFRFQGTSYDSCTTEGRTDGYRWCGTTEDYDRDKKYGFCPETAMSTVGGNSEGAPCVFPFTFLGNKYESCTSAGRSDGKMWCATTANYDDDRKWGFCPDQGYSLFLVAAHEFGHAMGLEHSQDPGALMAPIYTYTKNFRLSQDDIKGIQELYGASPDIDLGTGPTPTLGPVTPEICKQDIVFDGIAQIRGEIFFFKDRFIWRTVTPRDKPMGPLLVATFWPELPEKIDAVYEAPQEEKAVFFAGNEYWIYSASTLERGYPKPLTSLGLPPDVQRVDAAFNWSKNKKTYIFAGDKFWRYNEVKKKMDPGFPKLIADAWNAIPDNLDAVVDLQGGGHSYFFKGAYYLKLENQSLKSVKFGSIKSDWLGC
# Procedure, shortened: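 Human recombinant MMP-2 from transfected p2AHT2 cells was activated with APMA or trypsin and incubated 1 h at room temperature with compounds and 4 μM MCA-RPLGL(Dpa)ARER-NH2. Buffer was pH 7.5 Tris/NaCl/CaCl2, and fluorescence was read at ex 330/em 420 nm. Ki was fitted by Morrison's equation without substrate correction.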
# Human recombinant MMP-9 = target: T3, Human recombinant MMP-9 (Homo sapiens, UniProt P14780)
# T3 construct: made in house; host or cells: MMP-9-transfected HT1080 cells (spent media)
# T3 sequence (P14780 107-707 limits assumed): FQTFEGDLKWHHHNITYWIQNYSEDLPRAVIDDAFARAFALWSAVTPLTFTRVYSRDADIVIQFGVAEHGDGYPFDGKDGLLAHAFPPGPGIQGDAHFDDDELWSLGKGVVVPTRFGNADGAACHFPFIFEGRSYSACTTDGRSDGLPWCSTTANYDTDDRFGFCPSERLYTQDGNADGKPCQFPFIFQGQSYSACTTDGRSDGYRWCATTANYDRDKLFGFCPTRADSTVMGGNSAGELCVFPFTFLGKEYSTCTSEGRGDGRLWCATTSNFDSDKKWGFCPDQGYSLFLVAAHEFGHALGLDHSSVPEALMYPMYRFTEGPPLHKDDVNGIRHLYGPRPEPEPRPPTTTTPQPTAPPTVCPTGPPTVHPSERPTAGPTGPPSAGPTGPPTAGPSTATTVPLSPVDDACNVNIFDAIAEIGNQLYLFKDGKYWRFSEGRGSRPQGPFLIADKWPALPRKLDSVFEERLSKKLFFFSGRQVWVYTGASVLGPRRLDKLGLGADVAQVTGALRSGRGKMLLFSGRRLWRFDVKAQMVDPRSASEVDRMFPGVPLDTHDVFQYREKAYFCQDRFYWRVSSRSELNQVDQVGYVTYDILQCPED
# Procedure, shortened: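 Recombinant MMP-9 purified from transfected HT1080 cell media, activated with APMA, trypsin or recombinant MMP-3, assayed in Tris buffer pH 7.5 with CaCl2 and 4 μM fluorogenic MCA/Dpa peptide, 1 h at room temperature (ex 330/em 420 nm). Ki from Morrison-equation regression of velocity; substrate at or below Km, uncorrected.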
pKi (Human recombinant MMP-14),pKi (Human recombinant MMP-2),pKi (Human recombinant MMP-9),Structure (SMILES)
6.52,9.75,8.95,COCCOc1ccc(-c2ccc(S(=O)(=O)C3(C(=O)NO)CCOCC3)cc2)cc1 [Example 70]
6.76,9.74,9.40,CCCCOc1ccc(-c2ccc(S(=O)(=O)C3(C(=O)NO)CCOCC3)cc2)cc1 [Example 77]
5.02,7.26,6.88,CCCCOc1ccc(-c2ccc(S(=O)(=O)C3(C(=O)NO)CCOCC3)cc2)cc1C(F)(F)F [Example 78]
7.56,9.74,9.20,CCc1ccc(-c2ccc(S(=O)(=O)C3(C(=O)NO)CCOCC3)cc2)cc1 [Example 79]
7.05,10.01,9.21,O=C(NO)C1(S(=O)(=O)c2ccc(-c3ccc(OC(F)(F)F)cc3)cc2)CCOCC1 [Example 80]
7.65,9.97,9.00,Cc1ccc(-c2ccc(S(=O)(=O)C3(C(=O)NO)CCOCC3)cc2)nc1 [Example 81]
7.18,9.70,8.70,O=C(NO)C1(S(=O)(=O)c2ccc(-c3ccc(C(F)(F)F)cn3)cc2)CCOCC1 [Example 82]
5.20,8.13,8.56,CCCCNc1cnc(-c2ccc(S(=O)(=O)C3(C(=O)NO)CCOCC3)cc2)cn1 [Example 83]
6.00,8.00,7.01,O=C(NO)C1(S(=O)(=O)c2ccc(-c3ccc(F)c(C(F)(F)F)c3)cc2)CCOCC1 [Example 84]
5.55,7.48,6.61,O=C(NO)C1(S(=O)(=O)c2ccc(-c3ccc(OCC(F)(F)C(F)F)c(C(F)(F)F)c3)cc2)CCOCC1 [Example 85]
< 5.00,7.07,6.38,CC(C)CCOc1ccc(-c2ccc(S(=O)(=O)C3(C(=O)NO)CCOCC3)cc2)cc1C(F)(F)F [Example 86]
7.21,9.80,9.75,CCCc1ccc(-c2ccc(S(=O)(=O)C3(C(=O)NO)CCOCC3)cc2)cc1 [Example 87]
6.27,9.82,8.64,O=C(NO)C1(S(=O)(=O)c2ccc(-c3cnc(OCCCC(F)(F)F)cn3)cc2)CCOCC1 [Example 88]
6.86,10.31,10.28,CCCCc1ccc(-c2ccc(S(=O)(=O)C3(C(=O)NO)CCOCC3)cc2)nc1 [Example 89]
5.68,7.55,6.67,O=C(NO)C1(S(=O)(=O)c2ccc(-c3ccc(OCC(F)(F)C(F)(F)F)c(C(F)(F)F)c3)cc2)CCOCC1 [Example 90]
6.49,9.43,9.58,CCCCc1ccc(-c2ccc(S(=O)(=O)C3(C(=O)NO)CCOCC3)cc2)cc1 [Example 91]
5.13,7.24,6.97,CCC(C)COc1ccc(-c2ccc(S(=O)(=O)C3(C(=O)NO)CCOCC3)cc2)cc1C(F)(F)F (stereo not drawn) [Example 92]
5.35,8.38,8.31,CCNc1cnc(-c2ccc(S(=O)(=O)C3(C(=O)NO)CCOCC3)cc2)cn1 [Example 93]
5.53,8.96,8.47,O=C(NO)C1(S(=O)(=O)c2ccc(-c3cnc(-n4cccc4)cn3)cc2)CCOCC1 [Example 94]
6.33,9.77,9.12,O=C(NO)C1(S(=O)(=O)c2ccc(-c3ccc(OCC(F)(F)C(F)(F)F)cc3)cc2)CCOCC1 [Example 95]
6.65,9.18,8.67,O=C(NO)C1(S(=O)(=O)c2ccc(-c3ccc(C(F)(F)F)cc3F)cc2)CCOCC1 [Example 96]
6.96,8.94,8.27,CC(C)c1ccc(-c2ccc(S(=O)(=O)C3(C(=O)NO)CCOCC3)cc2)cc1 [Example 97]
5.95,8.61,6.57,COC/C(Cl)=C/c1cnc(-c2ccc(S(=O)(=O)C3(C(=O)NO)CCOCC3)cc2)cn1 [Example 165]

pKi (Human recombinant MMP-14),pKi (Human recombinant MMP-2),pKi (Human recombinant MMP-9),Structure (SMILES)
6.58,9.40,10.00,CC(C)CC#Cc1cnc(-c2ccc(S(=O)(=O)C3(C(=O)NO)CCOCC3)cc2)cn1 [Example 166]
5.44,8.72,7.90,O=C(NO)C1(S(=O)(=O)c2ccc(-c3ccc(CCC(F)(F)C(F)(F)F)cc3)cc2)CCS(=O)(=O)CC1 [Example 167]
7.34,10.10,9.72,O=C(NO)C1(S(=O)(=O)c2ccc(-c3cnc(OCC4CC4)cn3)cc2)CCOCC1 [Example 168]
5.60,8.96,9.23,CC(C)CCc1cnc(-c2ccc(S(=O)(=O)C3(C(=O)NO)CCOCC3)cc2)cn1 [Example 169]
6.63,10.05,10.10,CC(C)COc1cnc(-c2ccc(S(=O)(=O)C3(C(=O)NO)CCOCC3)cc2)cn1 [Example 170]
6.20,9.62,9.21,O=C(N1CCOCC1)N1CCC(C(=O)NO)(S(=O)(=O)c2ccc(-c3ccc(CCC(F)(F)C(F)(F)F)cc3)cc2)CC1 [Example 171]
6.65,10.15,10.22,O=C(NO)C1(S(=O)(=O)c2ccc(-c3cnc(OCCC4CC4)cn3)cc2)CCOCC1 [Example 172]
6.36,9.46,9.17,CN(C)C(=O)N1CCC(C(=O)NO)(S(=O)(=O)c2ccc(-c3ccc(CCC(F)(F)C(F)(F)F)cc3)cc2)CC1 [Example 173]
5.93,8.91,8.42,CC(C)N(C(=O)N1CCC(C(=O)NO)(S(=O)(=O)c2ccc(-c3ccc(CCC(F)(F)C(F)(F)F)cc3)cc2)CC1)C(C)C [Example 174]
< 5.00,9.38,8.87,O=C(N1CCCCC1)N1CCC(C(=O)NO)(S(=O)(=O)c2ccc(-c3ccc(CCC(F)(F)C(F)(F)F)cc3)cc2)CC1 [Example 175]
6.95,10.40,10.40,O=C(NO)C1(S(=O)(=O)c2ccc(-c3ccc(CCC(F)(F)F)cn3)cc2)CCOCC1 [Example 176]
5.23,8.80,8.27,COCCC(C(=O)NO)S(=O)(=O)c1ccc(-c2ccc(CCC(F)(F)C(F)(F)F)cc2)cc1 (stereo not drawn) [Example 177]
6.49,10.00,9.85,O=C(NO)C1(S(=O)(=O)c2ccc(-c3cnc(OCC4CCC4)cn3)cc2)CCOCC1 [Example 178]
6.66,8.52,7.41,COc1ccc(C(=O)c2cnc(-c3ccc(S(=O)(=O)C4(C(=O)NO)CCOCC4)cc3)cn2)cc1 [Example 179]
5.94,9.53,8.99,O=C(NO)C1(S(=O)(=O)c2ccc(-c3cnc(OCCC4CCCC4)cn3)cc2)CCOCC1 [Example 180]
6.21,9.57,9.58,COC(=O)c1ccc2cc(-c3ccc(S(=O)(=O)C4(C(=O)NO)CCOCC4)cc3)ccc2c1 [Example 181]
< 5.00,6.94,6.61,COc1ccc(Cc2cnc(-c3ccc(S(=O)(=O)C4(C(=O)NO)CCOCC4)cc3)cn2)cc1 [Example 182]
6.10,9.46,9.85,CO[C@H]1CC[C@](C(=O)NO)(S(=O)(=O)c2ccc(-c3cnc(CCC(F)(F)C(F)(F)F)cn3)cc2)CC1 [Example 183]
5.89,9.10,7.88,CCCCNC(=O)c1cnc(-c2ccc(S(=O)(=O)C3(C(=O)NO)CCOCC3)cc2)cn1 [Example 184]
5.69,9.04,7.87,CC(C)CCNC(=O)c1cnc(-c2ccc(S(=O)(=O)C3(C(=O)NO)CCOCC3)cc2)cn1 [Example 185]
5.34,8.63,7.66,CC(C)CNC(=O)c1cnc(-c2ccc(S(=O)(=O)C3(C(=O)NO)CCOCC3)cc2)cn1 [Example 186]
6.20,9.49,9.80,COCCO[C@H]1CC[C@](C(=O)NO)(S(=O)(=O)c2ccc(-c3cnc(CCC(F)(F)C(F)(F)F)cn3)cc2)CC1 [Example 187]
